From patent US8501713B2, “Drug combinations for the treatment of duchenne muscular dystrophy” (Summit Corporation PLC, priority 2007, dated 2013)

Test system: Utrophin A promoter linked to a luciferase reporter gene
Experiment: Luciferase reporter assay (murine H2K cells)
Type: cell-based
Settings: luciferase level relative to control, H2K/mdx/Utro A reporter cells, compound 10 μM final concentration; for activity at 10 µM: Mus musculus, H2K mdx, read-out: Activity
Outline: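 Immortalized mdx mouse H2K myoblasts stably carrying a ~5 kb utrophin A promoter–luciferase construct, kept at 33° C, 10% CO2. After 24 hrs plating, compound added at 10 μM final for 48 hrs; luciferase light output read after in-situ lysis.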

CC(=O)Nc1ccc(-c2nc3cc(Br)ccc3o2)cc1 [Example 359, N-(4-(5-bromobenzo[d]oxazol-2-yl)phenyl)acetamide]
activity at 10 µM: > 401%

Nc1ccc2oc(N3CCOCC3)nc2c1 [Example 360, 2-morpholinobenzo[d]oxazol-5-amine]
activity at 10 µM: < 200%

Clc1ccc(-c2nc3cc4c(cc3o2)OCO4)cc1Cl [Example 361, 2-(3,4-chlorophenyl)-5,6-methylenedioxybenzoxazole]
Activity: + (Up to 200% relative to control)

O=C(Nc1ccc2oc(-c3ccc(Cl)cc3)nc2c1)[C@@H]1CCCN1 [Example 362, (S)-N-(2-(4-chlorophenyl)benzo[d]oxazol-5-yl)pyrrolidine-2-carboxamide]
activity at 10 µM: 201 to 300%

O=C(CC(F)(F)F)Nc1ccc2oc(-c3cccc(Cl)c3Cl)nc2c1 [Example 363, N-(2-(2,3-dichlorophenyl)benzo[d]oxazol-5-yl)-3,3,3-trifluoropropanamide]
activity at 10 µM: > 401%

CC(C)C(=O)Nc1ccc2oc(C3CCCC3)nc2c1 [Example 364, N-(2-cyclopentylbenzo[d]oxazol-5-yl)isobutyramide]
activity at 10 µM: < 200%

CC(=O)Nc1ccc(-c2nc3cc(NC(C)=O)ccc3o2)cc1 [Example 365, N-(4-(5-acetamidobenzo[d]oxazol-2-yl)phenyl)acetamide]
activity at 10 µM: < 200%

O=[N+]([O-])c1ccc2oc(-c3ccco3)nc2c1 [Example 366, 2-(furan-2-yl)-5-nitrobenzo[d]oxazole]
activity at 10 µM: < 200%

CC(=O)Nc1ccc(-c2ccc3[nH]c(-c4ccc(Cl)cc4)cc3c2)cc1 [Example 367, N-(4-(2-(4-chlorophenyl)-1H-indol-5-yl)phenyl)acetamide]
activity at 10 µM: < 200%

CC(C)C(=O)Nc1ccc2oc(-c3cccc(C(F)(F)F)c3Cl)nc2c1 [Example 368, N-(2-(2-chloro-3-(trifluoromethyl)phenyl)benzo[d]oxazol-5-yl)isobutyramide]
activity at 10 µM: < 200%

Nc1ccc2nc(-c3ccc(Cl)c(Cl)c3)oc2c1 [Example 369, 2-(3,4-dichlorophenyl)benzo[d]oxazol-6-amine]
activity at 10 µM: > 401%

CC(C)C(=O)Nc1ccc2nc(-c3ccc(Cl)c(Cl)c3)oc2c1 [Example 370, N-(2-(3,4-dichlorophenyl)benzo[d]oxazol-6-yl)isobutyramide]
activity at 10 µM: > 401%

O=[N+]([O-])c1cc2oc(-c3ccc4c(c3)OCO4)nc2cc1Cl [Example 371, 2-(benzo[d][1,3]dioxol-5-yl)-5-chloro-6-nitrobenzo[d]oxazole]
activity at 10 µM: 301 to 400%

CC(=O)Nc1ccc(-c2nc3cc(-c4ccc(Cl)cc4)ccc3o2)cc1 [Example 372, N-(4-(5-(4-chlorophenyl)benzo[d]oxazol-2-yl)phenyl)acetamide]
activity at 10 µM: < 200%

CC(=O)Nc1ccc2oc(-c3ccc4ccccc4c3)nc2c1 [Example 373, N-(2-(naphthalen-2-yl)benzo[d]oxazol-5-yl)acetamide]
activity at 10 µM: > 401%

CC(=O)Nc1ccc(-c2nc3cc(NC(=O)C(C)C)ccc3o2)cc1 [Example 374, N-(2-(4-acetamidophenyl)benzo[d]oxazol-5-yl)isobutyramide]
activity at 10 µM: < 200%

CC(C)C(=O)Nc1ccc2cc(-c3ccccc3)[nH]c2c1 [Example 375, N-(2-phenyl-1H-indol-6-yl)isobutyramide]
activity at 10 µM: < 200%

O=C(Nc1ccc2oc(-c3cccc(Cl)c3Cl)nc2c1)c1cccc(Cl)c1Cl [Example 376, 2,3-dichloro-N-(2-(2,3-dichlorophenyl)benzo[d]oxazol-5-yl)benzamide]
activity at 10 µM: < 200%

CN[C@@H](C)C(=O)Nc1ccc2oc(-c3ccc(Cl)cc3)nc2c1 [Example 377, (S)-N-(2-(4-chlorophenyl)benzo[d]oxazol-5-yl)-2-(methylamino)propanamide]
activity at 10 µM: 301 to 400%

CC(C)C(=O)Nc1ccc2ccn(C)c2c1 [Example 378, N-(1-methyl-1H-indol-6-yl)isobutyramide]
activity at 10 µM: < 200%

O=[N+]([O-])c1ccc2oc(SCc3ccc(Cl)cc3)nc2c1 [Example 379, 2-(4-chlorobenzylthio)-5-nitrobenzo[d]oxazole]
activity at 10 µM: < 200%

Nc1ccc2oc(SCc3ccc(Cl)cc3)nc2c1 [Example 380, 2-(4-chlorobenzylthio)benzo[d]oxazol-5-amine]
activity at 10 µM: < 200%

Nc1ccc2oc(NCc3ccc(Cl)cc3)nc2c1 [Example 381, N2-(4-chlorobenzyl)benzo[d]oxazole-2,5-diamine]
activity at 10 µM: < 200%

Cc1ccc(CSc2nc3cc([N+](=O)[O-])ccc3o2)cc1 [Example 382, 2-(4-methylbenzylthio)-5-nitrobenzo[d]oxazole]
activity at 10 µM: < 200%

CC(C)C(=O)Nc1ccc2oc(SCc3ccc(Cl)cc3)nc2c1 [Example 383, N-(2-(4-chlorobenzylthio)benzo[d]oxazol-5-yl)isobutyramide]
activity at 10 µM: < 200%

CC(C)C(=O)Nc1ccc2oc(-c3ccc4ccccc4c3)nc2c1 [Example 384, N-(2-(naphthalen-2-yl)benzo[d]oxazol-5-yl)isobutyramide]
activity at 10 µM: 301 to 400%

O=C(Nc1ccc2oc(-c3ccc4ccccc4c3)nc2c1)c1cccs1 [Example 385, N-(2-(naphthalen-2-yl)benzo[d]oxazol-5-yl)thiophene-2-carboxamide]
activity at 10 µM: < 200%

CCOC(=O)Nc1ccc2oc(-c3ccc(Cl)cc3)nc2c1 [Example 386, ethyl 2-(4-chlorophenyl)benzo[d]oxazol-5-ylcarbamate]
activity at 10 µM: < 200%

CC(C)C(=O)Nc1ccc2ccn(Cc3ccccc3)c2c1 [Example 387, N-(1-benzyl-1H-indol-6-yl)isobutyramide]
activity at 10 µM: < 200%

O=[N+]([O-])c1ccc2oc(-c3cccs3)nc2c1 [Example 388, 5-nitro-2-(thiophen-2-yl)benzo[d]oxazole]
activity at 10 µM: < 200%

CC(C)C(=O)Nc1ccc2cc(-c3ccccc3)n(C)c2c1 [Example 389, N-(1-methyl-2-phenyl-1H-indol-6-yl)isobutyramide]
activity at 10 µM: < 200%

CCS(=O)(=O)c1ccc2oc(-c3cccc(Cl)c3F)nc2c1 [Example 391, 2-(3-chloro-2-fluorophenyl)-5-(ethylsulfonyl)benzo[d]oxazole]
activity at 10 µM: 201 to 300%

CCS(=O)(=O)c1ccc2oc(C3CCCCC3)nc2c1 [Example 392, 2-cyclohexyl-5-(ethylsulfonyl)benzo[d]oxazole]
activity at 10 µM: < 200%

CCS(=O)(=O)c1ccc2oc(-c3ccc(Cl)cn3)nc2c1 [Example 393, 2-(5-chloropyridin-2-yl)-5-(ethylsulfonyl)benzo[d]oxazole]
activity at 10 µM: 201 to 300%

CCS(=O)(=O)c1ccc2oc(-c3ccc4c(c3)OCO4)nc2c1 [Example 394, 2-(benzo[d][1,3]dioxol-5-yl)-5-(ethylsulfonyl)benzo[d]oxazole]
activity at 10 µM: > 401%

CS(=O)(=O)c1ccc(-c2nc3cc(Cl)ccc3o2)cc1 [Example 395, 5-chloro-2-(4-(methylsulfonyl)phenyl)benzo[d]oxazole]
activity at 10 µM: 201 to 300%

CC(C)C(=O)Nc1ccc2oc(-c3ccccc3)cc2c1 [Example 396, N-(2-phenylbenzofuran-5-yl)isobutyramide]
activity at 10 µM: > 401%

Nc1cc2oc(-c3ccc4c(c3)OCO4)nc2cc1Cl [Example 397, 2-(benzo[d][1,3]dioxol-5-yl)-5-chlorobenzo[d]oxazol-6-amine]
activity at 10 µM: 301 to 400%

CC(C)C(=O)Nc1cc2oc(-c3ccc4c(c3)OCO4)nc2cc1Cl [Example 398, N-(2-(benzo[d][1,3]dioxol-5-yl)-5-chlorobenzo[d]oxazol-6-yl)isobutyramide]
activity at 10 µM: < 200%

CSc1ccc2nc(-c3ccc(Cl)cc3)sc2c1 [Example 399, 2-(4-chlorophenyl)-6-(methylthio)benzo[d]thiazole]
activity at 10 µM: 301 to 400%

CS(=O)(=O)c1ccc2oc(-c3ccc(Cl)cc3)nc2c1 [Example 400, 2-(4-chlorophenyl)-5-(methylsulfonyl)benzo[d]oxazole]
activity at 10 µM: 201 to 300%

Nc1ccc2oc(-c3ccc(-c4ccccc4)cc3)nc2c1 [Example 401, 2-(biphenyl-4-yl)benzo[d]oxazol-5-amine]
activity at 10 µM: 301 to 400%

Nc1ccc2oc(-c3ccc4ccccc4n3)nc2c1 [Example 402, 2-(quinolin-2-yl)benzo[d]oxazol-5-amine]
activity at 10 µM: 301 to 400%

Nc1ccc2oc(-c3cnc4ccccc4c3)nc2c1 [Example 403, 2-(quinolin-3-yl)benzo[d]oxazol-5-amine]
activity at 10 µM: 301 to 400%

COc1ccc2cc(-c3nc4cc(N)ccc4o3)ccc2c1 [Example 404, 2-(6-methoxynaphthalen-2-yl)benzo[d]oxazol-5-amine]
activity at 10 µM: 201 to 300%

Nc1ccc2oc(-c3ccc4cc(Br)ccc4c3)nc2c1 [Example 405, 2-(6-bromonaphthalen-2-yl)benzo[d]oxazol-5-amine]
activity at 10 µM: < 200%

CS(=O)(=O)c1ccc2nc(-c3ccc(Cl)cc3)sc2c1 [Example 406, 2-(4-chlorophenyl)-6-(methylsulfonyl)benzo[d]thiazole]
activity at 10 µM: > 401%

CC(=O)Sc1ccc2oc(-c3ccc(Cl)cc3)nc2c1 [Example 407, S-2-(4-chlorophenyl)benzo[d]oxazol-5-yl ethanethioate]
activity at 10 µM: < 200%

O=C(CC(F)(F)F)Nc1ccc2oc(-c3ccccc3)cc2c1 [Example 408, 2-phenyl-5-(3′,3′,3′-trifluoropropanamido)benzofuran]
activity at 10 µM: < 200%

Clc1ccc(-c2nc3c(ccc4ccccc43)o2)cc1 [Example 409, 2-(4-chlorophenyl)naphtho[1,2-d]oxazole]
activity at 10 µM: > 401%

CC(C)C(=O)Nc1ccc2oc(-c3cccc4ccccc34)nc2c1 [Example 410, N-(2-(naphthalen-1-yl)benzo[d]oxazol-5-yl)isobutyramide]
activity at 10 µM: < 200%

CC(C)C(=O)Nc1ccc2oc(-c3ccc(-c4ccccc4)cc3)nc2c1 [Example 411, N-(2-(biphenyl-4-yl)benzo[d]oxazol-5-yl)isobutyramide]
activity at 10 µM: < 200%
